# Reference: patent US20130225548A1, “Pyridine Derivative and Medicinal Agent” (NIPPON SHINYAKU CO., LTD., priority 2010, published 2013)
# Structures can show the parent of a compound that is named as a salt.
# Target: T1, Syk tyrosine kinase (Homo sapiens, UniProt P43405)
# T1 construct: purchased Carna Biosciences, Inc
# Test: Test for Syk tyrosine kinase inhibitory activity (ELISA)
# Type: biochemical
# Conditions: Syk tyrosine kinase (Carna Biosciences), 25 μM ATP in substrate solution, 30° C. 1 hour, n=2; read-out: Evaluation (IC50, concentration inhibiting the tyrosine kinase activity at 50%)
# Experimental: Test Example 1: Test for Syk Tyrosine Kinase Inhibitory Activity
# 1. Preparation of Test Substance
# A test substance was prepared at 10 mM in dimethyl sulfoxide (DMSO), and further diluted with DMSO to concentrations of 1000, 300, 100, 30, 10, 3, 1, 0.3, 0.1, 0.03, and 0.01 μM. The resulting solutions were further diluted to 20-fold with an assay buffer, whereby test substance solutions were prepared. As a negative control, a solution obtained by diluting DMSO to 20-fold with an assay buffer was used. As the assay buffer, a buffer containing 15 mM Tris-HCl (pH 7.5), 0.01 (v/v) % Tween-20, and 1 mM dithiothreitol was used.
# 2. Measurement of Syk Tyrosine Kinase Inhibitory Activity
# The activity was measured using the ELISA method. Each of the test substance solutions was added to a streptavidine-coated 96-well place (DELFIA Strip Plate 8×12 wells, PerkinElmer Co., Ltd,) at 10 μL per well (n=2), and a substrate solution (625 nM biotinylated peptide substrate, 25 μM ATP, 25 mM MgCl2, 15 mM Tris-HCl (pH 7.5), 0.01 (v/v) % Tween-20, 1 mM dithiothreitol) was added to the plate at 20 μL per well, and the resulting mixture was stirred. Finally, Syk tyrosine kinase (Carna Biosciences, Inc.) (previously diluted to 0.025 nM with the assay buffer) was added to the plate at 20 μL per well, and the resulting mixture was stirred. A reaction was allowed to proceed at 30° C. for 1 hour. After the plate was washed 4 times with a washing buffer (50 mM Tris-HCl (pH 7.5, 150 mM NaCl, 0.02 (v/v) % Tween-20), a blocking buffer (0.1% bovine serum albumin, 50 mM Tris-HCl (pH 7.5), 150 mM NaCl, 0.02 (v/v) % Tween-20) was added to the plate at 150 μL per well, and blocking was performed at 30° C. for 30 minutes. Then, the blocking buffer was removed, and a horseradish peroxidase-labeled anti-phosphorylated tyrosine antibody (BD Biosciences, Inc.) (previously diluted to 10000-fold with the blocking buffer) was added to the plate at 100 μL per well, and the plate was incubated at 30° C. for 30 minutes. After the plate was washed 4 times with the washing buffer, a 3,3′,5,5′-tetramethylbenzidine solution (Sigma-Aldrich Co., Ltd.) was added to the plate at 100 μL per well to develop the color for 10 minutes. The reaction was stopped by adding 0.1 M sulfuric acid at 100 μL per well. The absorbance at 450 nm was measured using a microplate reader (Multiskan F C, Thermo Fisher Scientific K,K.).
# 3. Analysis of Measurement Results
# A non-linear regression analysis was performed for the measured absorbance using the SAS system (SAS institute. Inc.), and a concentration of each of the test substances: inhibiting the tyrosine kinase activity at 50% (IC50 ) was calculated. A case where IC50 is […] was evaluated as ***, a case where IC50 is 5 nM or more and less than 50 nM was evaluated as **, and a case where IC50 is 50 nM or more and less than 500 nM was evaluated as *, which are shown in the column of evaluation item.
row,Compound,IC50
1,2-({4-cyclopropyl-6-[2-ethyl-1-(trans-4-hydroxycyclohexyl)-1H-benzimidazol-6-yl]pyridin-2-yl}amino)pyridine-4-carbonitrile hydrochloride [Example 157],< 0.005 µM
2,2-({6-[1-(4-cyanopiperidin-1-yl)isoquinolin-7-yl]-4-cyclopropylpyridin-2-yl}amino)pyridine-4-carbonitrile hydrochloride [Example 170],0.005 to 0.05 µM
3,"N#Cc1ccnc(Nc2cc(C3CC3)cc(-c3ccc(N4CCOCC4)nc3)n2)c1 [Example 1, 2-{[4-cyclopropyl-6′-(morpholin-4-yl)-2,3′-bipyridin-6-yl]amino}pyridine-4-carbonitrile hydrochloride]",0.005 to 0.05 µM
4,"N#Cc1ccnc(Nc2cc(C3CC3)cc(-c3ccc(NCCO)nc3)n2)c1 [Example 2, 2-({4-cyclopropyl-6′-[(2-hydroxyethyl)amino]-2,3′-bypyridin-6-yl}amino)pyridine-4-carbonitrile hydrochloride]",0.005 to 0.05 µM
5,"N#Cc1ccnc(Nc2cc(C3CC3)cc(-c3ccc(N4CCS(=O)(=O)CC4)nc3)n2)c1 [Example 3, 2-{[4-cyclopropyl-6′-(1,1-dioxidethiomorpholin-4-yl)-2,3′-bipyridin-6-yl]amino}pyridine-4-carbonitrile hydrochloride]",< 0.005 µM
6,"N#Cc1ccnc(Nc2cc(C3CC3)cc(-c3ccc(N4CCC(=O)CC4)nc3)n2)c1 [Example 4, 2-{[4-cyclopropyl-6′-(4-oxopiperidin-1-yl)-2,3′-bipyridin-6-yl]amino}pyridine-4-carbonitrile hydrochloride]",0.005 to 0.05 µM
7,"N#Cc1ccnc(Nc2cc(C3CC3)cc(-c3ccc(N4CCNC(=O)C4)nc3)n2)c1 [Example 5, 2-{[4-cyclopropyl-6′-(3-oxopiperazin-1-yl)-2,3′-bipyridin-6-yl]amino}pyridine-4-carbonitrile hydrochloride]",0.005 to 0.05 µM
8,"N#Cc1ccnc(Nc2cc(C3CC3)cc(-c3ccc(N4CC(O)C4)nc3)n2)c1 [Example 6, 2-{[4-cyclopropyl-6′-(3-hydroxyazetidin-1-yl)-2,3′-bipyridin-6-yl]amino}pyridine-4-carbonitrile hydrochloride]",0.005 to 0.05 µM
9,"N#Cc1ccnc(Nc2cc(C3CC3)cc(-c3ccc(N4CCN(CC(N)=O)CC4)nc3)n2)c1 [Example 7, 2-(4-{6-[(4-cyanopyridin-2-yl)amino]-4-cyclopropyl-2,3′-bipyridin-6′-yl}piperazin-1-yl)acetamide hydrochloride]",0.05 to 0.5 µM
10,"N#Cc1ccnc(Nc2cc(C3CC3)cc(-c3ccc(N4C[C@H](O)CC4=O)nc3)n2)c1 [Example 8, 2-({4-cyclopropyl-6′-[(4R)-4-hydroxy-2-oxopyrrolidin-1-yl]-2,3′-bipyridin-6-yl}amino)pyridine-4-carbonitrile hydrochloride]",0.05 to 0.5 µM
11,"CC(=O)N1CCCN(c2ccc(-c3cc(C4CC4)cc(Nc4cc(C#N)ccn4)n3)cn2)CC1 [Example 9, 2-{[6′-(4-acetyl-1,4-diazepan-1-yl)-4-cyclopropyl-2,3′-bipyridin-6-yl]amino}pyridine-4-carbonitrile hydrochloride]",0.05 to 0.5 µM
12,"N#Cc1ccnc(Nc2cc(C3CC3)cc(-c3ccc(N4CCCN(C(N)=O)CC4)nc3)n2)c1 [Example 10, 4-{6-[(4-cyanopyridin-2-yl)amino]-4-cyclopropyl-2,3′-bipyridin-6′-yl}-1,4-diazepane-1-carboxamide hydrochloride]",0.005 to 0.05 µM
13,"Cn1cnc2cc(-c3cc(C4CC4)cc(Nc4cc(C#N)ccn4)n3)ccc21 [Example 15, 2-{[4-cyclopropyl-6-(1-methyl-1H-benzimidazol-5-yl)pyridin-2-yl]amino}pyridine-4-carbonitrile hydrocloride]",0.005 to 0.05 µM

# Further lines, results first:
row,IC50,Compound
1,0.05 to 0.5 µM,"CC(=O)O[C@@H]1CCC[C@H]1n1cnc2ccc(-c3cc(C4CC4)cc(Nc4cc(C#N)ccn4)n3)cc21 (relative stereo) [Example 141, trans-2-(6-{6-[(4-cyanopyridin-2-yl)amino]-4-cyclopropylpyridin-2-yl}-1H-benzimidazol-1-yl)cyclopentyl acetate hydrochloride]"
2,0.005 to 0.05 µM,"N#Cc1ccnc(Nc2cc(C3CC3)cc(-c3ccc4ncn([C@@H]5CCCC[C@H]5O)c4c3)n2)c1 (relative stereo) [Example 146, 2-[(4-cyclopropyl-6-{1[trans-2-hydroxycyclohexyl]-1H-benzimidazol-6-yl}pyridin-2-yl)amino]pyridine-4-carbonitrile hydrochloride]"
3,0.05 to 0.5 µM,"N#Cc1ccnc(Nc2cc(C3CC3)cc(-c3ccc4c(c3)ncn4[C@@H]3CCCC[C@H]3O)n2)c1 (relative stereo) [Example 152, 2-[(4-cyclopropyl-6-{1-[trans-2-hydroxycyclohexyl]-1H-benzimidazol-5-yl}pyridin-2-yl)amino]pyridine-4-carbonitrile hydrochloride]"
4,0.05 to 0.5 µM,"N#Cc1ccnc(Nc2cc(C3CC3)cc(-c3ccc(N4C[C@@H](O)CC4=O)nc3)n2)c1 [Example 11, 2-({4-cyclopropyl-6′-[(4S)-4-hydroxy-2-oxopyrrolidin-1-yl]-2,3′-bipyridin-6-yl}amino)pyridine-4-carbonitrile hydrochloride]"
5,0.05 to 0.5 µM,"N#Cc1ccnc(Nc2cc(C3CC3)cc(-c3ccc(N[C@H]4CC[C@H](O)CC4)nc3)n2)c1 [Example 12, 2-({4-cyclopropyl-6′-[(trans-4-hydroxycyclohexyl)amino]-2,3′-bipyridin-6-yl}amino)pyridine-4-carbonitrile hydrochloride]"
6,0.005 to 0.05 µM,"N#Cc1ccnc(Nc2cc(C3CC3)cc(-c3ccc4c(c3)ncn4CCN)n2)c1 [Example 13, 2-({6-[1-(2-aminoethyl)-1H-benzimidazol-5-yl]-4-cyclopropylpyridin-2-yl}amino)pyridine-4-carbonitrile hydrochloride]"
7,0.005 to 0.05 µM,"N#Cc1ccnc(Nc2cc(C3CC3)cc(-c3ccc4c(c3)ncn4[C@H]3CC[C@H](O)CC3)n2)c1 [Example 14, 2-({4-cyclopropyl-6-[1-(trans-4-hydroxycyclohexyl)-1H-benzimidazol-5-yl]pyridin-2-yl}amino)pyridine-4-carbonitrile hydrochloride]"
8,0.005 to 0.05 µM,"N#Cc1ccnc(Nc2cc(C3CC3)cc(-c3ccc4c(c3)ncn4C3CCOCC3)n2)c1 [Example 16, 2-({4-cyclopropyl-6-[1-tetrahydro-2H-pyran-4-yl)-1H-benzimidazol-5-yl]pyridin-2-yl}amino)pyridine-4-carbonitrile hydrochloride]"
9,0.05 to 0.5 µM,"N#Cc1ccnc(Nc2cc(C3CC3)cc(-c3ccc(C#N)nc3)n2)c1 [Example 17, 6-[(4-cyanopyridin-2-yl)amino]-4-cyclopropyl-2,3′-bipyridine-6′-carbonitrile hydrochloride]"
10,0.005 to 0.05 µM,"N#Cc1ccnc(Nc2cc(C3CC3)cc(-c3ccc(N)nc3)n2)c1 [Example 18, 2-[(6′-amino-4-cyclopropyl-2,3′-bipyridin-6-yl)amino]pyridine-4-carbonitrile hydrochloride]"
11,< 0.005 µM,"N#Cc1ccnc(Nc2cc(C3CC3)cc(-c3ccc(NCCN)nc3)n2)c1 [Example 19, 2-({6′-[(2-aminoethyl)amino]-4-cyclopropyl-2,3′-bipyridin-6-yl}amino)pyridine-4-carbonitrile dihydrochloride]"
12,0.005 to 0.05 µM,"N#Cc1ccnc(Nc2cc(C3CC3)cc(-c3ccc(N4CCC(O)CC4)nc3)n2)c1 [Example 20, 2-{[4-cyclopropyl-6′-(4-hydroxypiperidin-1-yl)-2,3′-bipyridin-6-yl]amino}pyridine-4-carbonitrile hydrochloride]"
13,0.005 to 0.05 µM,"COCCNc1ccc(-c2cc(C3CC3)cc(Nc3cc(C#N)ccn3)n2)cn1 [Example 21, 2-({4-cyclopropyl-6′-[(2-methoxyethyl)amino]-2,3′-bipyridin-6-yl}amino)pyridine-4-carbonitrile hydrochloride]"
